What was measured:
HLA-E = target: T1, HLA-E (Homo sapiens, UniProt P13747); test: HLA-E surface stabilization assay with RMA-S/HLA-E cells; type: cell-based; conditions: 30 μM peptide, 16 hours; for HLA-E surface expression stability (GeoMFI): anti-HLA-E antibody
T1 construct: expressed in transfected cells; host or cells: RMA-S/HLA-E cells (antigen processing-defective lymphoma cell line)
Experimental: HLA-E surface expression was assessed by measuring geometric mean fluorescence intensity (GeoMFI) in RMA-S cells following immunofluorescence staining with an anti-HLA-E antibody (Table 14). Increased GeoMFI was indicative of increased HLA-E surface expression stability following novel peptide exposures (FIG. 3).

NKG2A−/NKG2C+ NK cells [1] = test: NK cell activation markers in NKG2A-/NKG2C+ NK cells incubated with peptide and K562 expressing HLA-E (activation); type: cell-based, human; conditions: for percentage of CCL3+ NK cells / percentage of CD107+ NK cells / percentage of IFNG+ NK cells / percentage of TNF+ NK cells: NKG2A-/NKG2C+ NK cells, K562/HLA-E
Procedure, shortened: (§1)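 Read-out: % NK cells positive for surface activation markers; a rise indicates activation, a fall indicates inhibition. Targets were K562 cells expressing HLA-E, loaded with human- or HCMV-proteome-derived peptides.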

NKG2A−/NKG2C+ NK cells [2] = test: NKG2A-/NKG2C+ NK cell activation with peptide and RMA-S cells expressing HLA-E; type: cell-based; conditions: RMA-S cells expressing HLA-E
Experimental: An antigen processing-defective lymphoma cell line (RMA-S), with a low-level expression of HLA-E, were incubated with the novel peptides to determine the inhibitory strength on NKG2A−/NKG2C+NK cells relative to positive control sequences with differential effects ([…] (SEQ ID NO: 19)/VMAPRTLFL (SEQ ID NO: 18)). The effects of the peptides on NK cell inhibition were determined by measuring four markers of NK cell activation (CD107a, IFNG, TNF, CCL3) in NKG2A−/NKG2C+NK cells (FIGS. 2A-2D). Activation was indicated by an increase in percent cells positive for cell surface markers.

NKG2A+/NKG2C− NK cells = test: NK cell activation markers in NKG2A+/NKG2C- NK cells incubated with peptide and K562 expressing HLA-E (inhibition); type: cell-based, human; conditions: for percentage of CCL3+ NK cells / percentage of CD107a+ NK cells / percentage of IFNG+ NK cells / percentage of TNF+ NK cells: NKG2A+/NKG2C- NK cells, K562/HLA-E
Procedure, shortened: as §1

NKG2A−/NKG2C− NK cells = test: NK cell activation markers in control NKG2A-/NKG2C- NK cells incubated with peptide and K562 expressing HLA-E; type: cell-based, human
Procedure, shortened: as §1

[3] = K562 expressing HLA-E, CD107a, IFNG, TNF, CCL3

T1 sequence (P13747 22-358): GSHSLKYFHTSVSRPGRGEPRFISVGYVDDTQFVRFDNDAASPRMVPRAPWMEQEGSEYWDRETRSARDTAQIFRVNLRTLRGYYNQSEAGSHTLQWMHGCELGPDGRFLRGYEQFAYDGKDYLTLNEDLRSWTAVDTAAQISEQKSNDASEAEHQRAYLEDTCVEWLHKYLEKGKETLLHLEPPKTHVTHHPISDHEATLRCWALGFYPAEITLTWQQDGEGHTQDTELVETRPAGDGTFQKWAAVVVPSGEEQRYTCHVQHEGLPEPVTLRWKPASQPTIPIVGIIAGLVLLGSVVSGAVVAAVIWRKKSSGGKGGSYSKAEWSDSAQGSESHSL
T1 sequence (P61769 21-119 partner): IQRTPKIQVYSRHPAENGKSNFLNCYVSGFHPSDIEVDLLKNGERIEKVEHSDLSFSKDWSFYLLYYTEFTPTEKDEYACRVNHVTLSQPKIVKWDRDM

NMPARTVLF [human14, peptide MTREX 490-498 derived from the human proteome]
HLA-E surface expression stability (GeoMFI) (HLA-E; Trial 1): 1304 GeoMFI
HLA-E surface expression stability (GeoMFI) (HLA-E; Trial 2): 1364 GeoMFI
HLA-E surface expression stability (GeoMFI) (HLA-E; Trial 3): 1005 GeoMFI
HLA-E surface expression stability (GeoMFI) (HLA-E; Trial 4): 1738 GeoMFI
HLA-E surface expression stabilization strength, approximate GeoMFI (HLA-E; approximate value): approximately 1×10^3 GeoMFI
effect on NKG2A−/NKG2C+ NK cell activation (in words) (NKG2A−/NKG2C+ NK cells [1]; [3]): strong inhibitory and activating effects
percentage of CCL3+ NK cells (NKG2A−/NKG2C+ NK cells [1]; Trial 1): 70.6%
percentage of CD107+ NK cells (NKG2A−/NKG2C+ NK cells [1]; Trial 1): 61.3%
percentage of IFNG+ NK cells (NKG2A−/NKG2C+ NK cells [1]; Trial 1): 45.6%
percentage of TNF+ NK cells (NKG2A−/NKG2C+ NK cells [1]; Trial 1): 31.9%
percentage of CCL3+ NK cells (NKG2A−/NKG2C+ NK cells [1]; Trial 2): 87.5%
percentage of CD107+ NK cells (NKG2A−/NKG2C+ NK cells [1]; Trial 2): 83.1%
percentage of IFNG+ NK cells (NKG2A−/NKG2C+ NK cells [1]; Trial 2): 72.7%
percentage of TNF+ NK cells (NKG2A−/NKG2C+ NK cells [1]; Trial 2): 65.1%
percentage of CCL3+ NK cells (NKG2A−/NKG2C+ NK cells [1]; Trial 3): 82.5%
percentage of CD107+ NK cells (NKG2A−/NKG2C+ NK cells [1]; Trial 3): 85%
percentage of IFNG+ NK cells (NKG2A−/NKG2C+ NK cells [1]; Trial 3): 74.2%
percentage of TNF+ NK cells (NKG2A−/NKG2C+ NK cells [1]; Trial 3): 65%
percentage of CCL3+ NK cells (NKG2A−/NKG2C+ NK cells [1]; Trial 4): 61.1%
percentage of CD107+ NK cells (NKG2A−/NKG2C+ NK cells [1]; Trial 4): 59.1%
percentage of IFNG+ NK cells (NKG2A−/NKG2C+ NK cells [1]; Trial 4): 47.5%
percentage of TNF+ NK cells (NKG2A−/NKG2C+ NK cells [1]; Trial 4): 40%
percentage of CCL3+ NK cells (NKG2A−/NKG2C+ NK cells [1]; Trial 5): 71.8%
percentage of CD107+ NK cells (NKG2A−/NKG2C+ NK cells [1]; Trial 5): 70.5%
percentage of IFNG+ NK cells (NKG2A−/NKG2C+ NK cells [1]; Trial 5): 61.9%
percentage of TNF+ NK cells (NKG2A−/NKG2C+ NK cells [1]; Trial 5): 57.9%
percentage of CCL3+ NK cells (NKG2A−/NKG2C+ NK cells [1]; Trial 6): 52.1%
percentage of CD107+ NK cells (NKG2A−/NKG2C+ NK cells [1]; Trial 6): 44.3%
percentage of IFNG+ NK cells (NKG2A−/NKG2C+ NK cells [1]; Trial 6): 30.5%
percentage of TNF+ NK cells (NKG2A−/NKG2C+ NK cells [1]; Trial 6): 21.8%
NKG2A−/NKG2C+ NK cell activation relative to positive control peptides (in words) (NKG2A−/NKG2C+ NK cells [2]): decreased NK cell activation relative to the positive control peptides
effect on NKG2A+/NKG2C− NK cell inhibition (in words) (NKG2A+/NKG2C− NK cells; [3]): strong inhibitory
percentage of CCL3+ NK cells (NKG2A+/NKG2C− NK cells; Trial 1): 3.55%
percentage of CD107a+ NK cells (NKG2A+/NKG2C− NK cells; Trial 1): 1.54%
percentage of IFNG+ NK cells (NKG2A+/NKG2C− NK cells; Trial 1): 0.3%
percentage of TNF+ NK cells (NKG2A+/NKG2C− NK cells; Trial 1): 0.12%
percentage of CCL3+ NK cells (NKG2A+/NKG2C− NK cells; Trial 2): 6.94%
percentage of CD107a+ NK cells (NKG2A+/NKG2C− NK cells; Trial 2): 2.38%
percentage of IFNG+ NK cells (NKG2A+/NKG2C− NK cells; Trial 2): 0.79%
percentage of TNF+ NK cells (NKG2A+/NKG2C− NK cells; Trial 2): 0.31%
percentage of CCL3+ NK cells (NKG2A+/NKG2C− NK cells; Trial 3): 6.08%
percentage of CD107a+ NK cells (NKG2A+/NKG2C− NK cells; Trial 3): 3.66%
percentage of IFNG+ NK cells (NKG2A+/NKG2C− NK cells; Trial 3): 2.62%
percentage of TNF+ NK cells (NKG2A+/NKG2C− NK cells; Trial 3): 1.09%
percentage of CCL3+ NK cells (NKG2A+/NKG2C− NK cells; Trial 4): 3.51%
percentage of CD107a+ NK cells (NKG2A+/NKG2C− NK cells; Trial 4): 2.52%
percentage of IFNG+ NK cells (NKG2A+/NKG2C− NK cells; Trial 4): 0.83%
percentage of TNF+ NK cells (NKG2A+/NKG2C− NK cells; Trial 4): 0.55%
percentage of CCL3+ NK cells (NKG2A+/NKG2C− NK cells; Trial 5): 17%
percentage of CD107a+ NK cells (NKG2A+/NKG2C− NK cells; Trial 5): 4.05%
percentage of IFNG+ NK cells (NKG2A+/NKG2C− NK cells; Trial 5): 2.12%
percentage of TNF+ NK cells (NKG2A+/NKG2C− NK cells; Trial 5): 0.89%
percentage of CCL3+ NK cells (NKG2A+/NKG2C− NK cells; Trial 6): 2.66%
percentage of CD107a+ NK cells (NKG2A+/NKG2C− NK cells; Trial 6): 1.16%
percentage of IFNG+ NK cells (NKG2A+/NKG2C− NK cells; Trial 6): 0.43%
percentage of TNF+ NK cells (NKG2A+/NKG2C− NK cells; Trial 6): 0.14%
percentage CCL3+ NK cells (NKG2A−/NKG2C− NK cells; Trial 1): 29.3%
percentage CD107+ NK cells (NKG2A−/NKG2C− NK cells; Trial 1): 20.9%
percentage TNF+ NK cells (NKG2A−/NKG2C− NK cells; Trial 1): 2.61%
percentage of IFNG+ NK cells (NKG2A−/NKG2C− NK cells; Trial 1): 12.1%
percentage CCL3+ NK cells (NKG2A−/NKG2C− NK cells; Trial 2): 54.7%
percentage CD107+ NK cells (NKG2A−/NKG2C− NK cells; Trial 2): 31.4%
percentage TNF+ NK cells (NKG2A−/NKG2C− NK cells; Trial 2): 9.25%
percentage of IFNG+ NK cells (NKG2A−/NKG2C− NK cells; Trial 2): 27.7%
percentage CCL3+ NK cells (NKG2A−/NKG2C− NK cells; Trial 3): 44%
percentage CD107+ NK cells (NKG2A−/NKG2C− NK cells; Trial 3): 43.7%
percentage TNF+ NK cells (NKG2A−/NKG2C− NK cells; Trial 3): 17.1%
percentage of IFNG+ NK cells (NKG2A−/NKG2C− NK cells; Trial 3): 36.5%
percentage CCL3+ NK cells (NKG2A−/NKG2C− NK cells; Trial 4): 29.2%
percentage CD107+ NK cells (NKG2A−/NKG2C− NK cells; Trial 4): 25.6%
percentage TNF+ NK cells (NKG2A−/NKG2C− NK cells; Trial 4): 8.96%
percentage of IFNG+ NK cells (NKG2A−/NKG2C− NK cells; Trial 4): 17.5%
percentage CCL3+ NK cells (NKG2A−/NKG2C− NK cells; Trial 5): 26.9%
percentage CD107+ NK cells (NKG2A−/NKG2C− NK cells; Trial 5): 21.8%
percentage TNF+ NK cells (NKG2A−/NKG2C− NK cells; Trial 5): 7.19%
percentage of IFNG+ NK cells (NKG2A−/NKG2C− NK cells; Trial 5): 16.7%
percentage CCL3+ NK cells (NKG2A−/NKG2C− NK cells; Trial 6): 20.9%
percentage CD107+ NK cells (NKG2A−/NKG2C− NK cells; Trial 6): 16.7%
percentage TNF+ NK cells (NKG2A−/NKG2C− NK cells; Trial 6): 2.97%
percentage of IFNG+ NK cells (NKG2A−/NKG2C− NK cells; Trial 6): 7.36%
